The results in this text go back to paper PMC5635026, “Homo-PROTACs: bivalent small-molecule dimerizers of the VHL E3 ubiquitin ligase to induce self-degradation” (Nature Communications, 2017).

Experiment [1] deals with pVHL30 (Homo sapiens, UniProt P40337). Put plainly: Co-treatment / competition experiments on CM11-induced pVHL30 degradation in HeLa cells. In kind it is cell-based. On the set-up: endogenous in cells; host or cells: HeLa. The following applies: CM11 1 µM 4 h. How it is done:
ML4924 and MG132 co-treatment. Cells were transferred in six-well plates with 5 × 10^5 cells per well in 2 ml media in order to achieve 80% confluence the day after. At t = 0, MLN4924 was added into the desired wells at 3 μM final concentration and 0.1% v/v of DMSO. DMSO (0.1% v/v final conc.) was added to the remaining wells in order to match identical conc. of vehicle in all wells. At t = 3 h, MG 132 was added into the desired wells at 50 μM final conc. and 0.1% v/v of DMSO. DMSO (0.1% v/v final conc.) was added to the remaining wells in order to achieve the same conc. of vehicle in all the wells. […] DMSO (0.1% v/v final conc.) was added to the remaining wells to obtain the same conc. of vehicle in all the wells. The total final concentration of DMSO was therefore 0.3% v/v. Plates were incubated for 4 h at 37 °C and 5% CO2 before harvesting. […] Plates were incubated for the desired time at 37 °C and 5% CO2 before harvesting.
Immunoblotting. Cells were lysed in lysis buffer (20 mM Tris pH 8, 150 mM NaCl, 1% Triton × 100) and a protease inhibitor cocktail (Roche) per 10 ml buffer. For protein extracts, the dishes were placed on ice. The media was aspirated and the tissue layer washed twice with ice-cold phosphate buffer saline (PBS). Lysis buffer (120 μl) was added and the cells detached from the surface with a cell scraper. After removal of the insoluble fraction by centrifugation, the protein concentration of the supernatant was determined by Pierce™ Coomassie (Bradford) Protein Assay Kit. Protein extracts were fractionated by SDS-PAGE on 4–12% Tris-Acetate NuPage® Novex® (Life Technologies) polyacrylamide gels and transferred to a nitrocellulose membrane using wet transfer. The membrane was then blocked with 5 % w/v Bovine serum albumin (BSA) in Tris-buffered saline (TBS) with 0.1% w/v Tween-20. For detecting proteins the following primary antibodies in the given concentrations were used: anti-β-Actin (Cell Signaling Technology, 4970S, 13E5) 1:2000, anti-VHL (Cell Signaling Technology, #68547) 1:1000, anti-Hif-1α (BD Biosciences, 610959, clone 54) 1:1,000, anti-hydroxy-HIF-1α (Hyp564) (Cell Signaling Techonology; #3434) 1:1,000, anti-PHD2 (Bethyl Laboratories; A300-322A) 1:1,000, anti-PHD3 (Bethyl Laboratories; A300-327A) 1:1000, anti-CRBN (Proteintech; 11435-1-AP) 1:1,000. Following incubation with a horseradish peroxidase-conjugated secondary antibody (Cell Signaling Technology), the signal was developed using enhanced chemiluminescence (ECL) Western Blotting Detection Kit (Amersham) on Amersham Hyperfilm ECL film (Amersham). Band quantification was performed using ImageJ software and reported as relative amount as ratio of the each protein band relative to the lane’s loading control. The values obtained were then normalized to 0.1% DMSO vehicle control. […]

Experiment [2] concerns Hypoxia response element (HRE)-luciferase reporter HeLa-HRE cells. Put plainly: HRE-luciferase reporter assay in HeLa-HRE cells. The following applies: different concentrations and times. In kind it is cell-based, Human. How it is done: Luciferase assay. Assay was performed as described. Briefly, cells (HeLa and U2OS) stably expressing an HRE-luciferase reporter were treated for the indicated times with compounds. Cells were harvested in passive lysis buffer (Promega) and subjected to three freeze-thaw cycles. The soluble lysate fraction was used for assays, performed according to the manufacturer’s instructions (Promega) using a Berthold Lumat LB 9507 Luminometer. Results were normalized for protein concentration, and reported as mean ± s.e.m. from three biological replicates.
(In general: A reporter such as luciferase makes a cellular process visible.)

Experiment [3] addresses T1, V30CB (Homo sapiens, UniProt P40337).
T1 construct: N-terminally His6-tagged VHL (1–213), ElonginC (17–112) and ElonginB (1–104) were co-expressed; His6 (N, cleaved yes); made in house; host or cells: Escherichia coli BL21(DE3)
Briefly: Size-exclusion chromatography (SEC) of complex formation with V30CB. Format: binding. How it is done: Protein expression and purification. Human proteins VHL (UniProt accession number: P40337), ElonginC (Q15369), and ElonginB (Q15370) were used for all protein expression. The short-isoform-containing VCB complex (V19CB) was expressed, purified and stored as described previously. For expression of the long-isoform-containing VCB complex (V30CB), N-terminally His6-tagged VHL (1–213), ElonginC (17–112) and ElonginB (1–104) were co-expressed in Escherichia coli BL21(DE3) at 20 °C for 18 h using 0.5 mM isopropyl β-D-1-thiogalactopyranoside (IPTG). E. coli cells were resuspended in binding buffer (50 mM HEPES, pH 8.0, 500 mM NaCl, 10 mM imidazole and 5 mM β-mercaptoethanol), lysed using a pressure cell homogenizer (Stansted Fluid Power), and lysate clarified by centrifugation. The supernatant was loaded onto a HisTrap FF affinity column (GE Healthcare) equilibrated with binding buffer, and bound protein was eluted using an imidazole gradient. […]
Size-exclusion chromatography (SEC). […] The oligomeric state of the VCB complex in solution was analyzed by gel filtration in a buffer containing 20 mM Bis-Tris (pH 7), 150 mM NaCl and 1 mM 1,4-dithiothreitol (DTT) using a Superdex 200 Increase 10/300 GL column (GE Healthcare) calibrated with globular proteins of known molecular weight (GE Healthcare, 28-4038-41/42). […] Peak elution was monitored using ultraviolet absorbance at 280 nm.
In general terms: Size exclusion chromatography separates by hydrodynamic size, large species first.

Sequence of pVHL30 (P40337 whole entry): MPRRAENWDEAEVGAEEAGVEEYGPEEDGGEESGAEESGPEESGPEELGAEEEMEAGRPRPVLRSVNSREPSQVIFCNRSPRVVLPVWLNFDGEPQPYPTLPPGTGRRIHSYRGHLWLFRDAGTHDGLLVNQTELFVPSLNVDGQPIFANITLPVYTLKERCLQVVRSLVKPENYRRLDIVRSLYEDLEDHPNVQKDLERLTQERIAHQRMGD
T1 sequence (P40337 whole entry): as above
T1 sequence (Q15369 17-112 partner limits assumed): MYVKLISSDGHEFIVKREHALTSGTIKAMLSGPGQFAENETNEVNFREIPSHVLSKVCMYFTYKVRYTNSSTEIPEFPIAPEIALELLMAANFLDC
T1 sequence (Q15370 1-104 partner limits assumed): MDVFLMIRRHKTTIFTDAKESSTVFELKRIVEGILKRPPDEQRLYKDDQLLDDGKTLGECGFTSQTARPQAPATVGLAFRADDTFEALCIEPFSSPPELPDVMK

Regarding `Cc1ncsc1-c1ccc(CNC(=O)[C@@H]2C[C@@H](O)CN2C(=O)[C@@H](NC(=O)COCCOCCOCCOCCOCCOCC(=O)N[C@H](C(=O)N2C[C@H](O)C[C@H]2C(=O)NCc2ccc(-c3scnc3C)cc2)C(C)(C)C)C(C)(C)C)cc1` [CM11, N ^1 ,N ^20-bis((S)-1-((2S,4R)-4-hydroxy-2-((4-(4-methylthiazol-5-yl)benzyl)carbamoyl)pyrrolidin-1-yl)-3,3-dimethyl-1-oxobutan-2-yl)-3,6,9,12,15,18-hexaoxaicosanediamide], the “CM11 activity after pre-treatment with IOX4” value in experiment [1] (IOX4 50 µM) is “did not impact CM11 activity”. Moreover, the “CM11-induced degradation of pVHL30 after pre-treatment with MG132” value in experiment [1] (MG132 50 µM) is on record as “completely abrogated”. Moreover, the “CM11-induced degradation after pre-treatment with MLN4924” value in experiment [1] (MLN4924 3 µM) is recorded as “prevented”. In addition, the “CM11-induced pVHL degradation after pre-treatment with VH032” value in experiment [1] (VH032 150 µM for 30 min) was “blocked pVHL degradation”. The “luciferase activity relative to DMSO control” value in experiment [2] was “no increase”. Further, the “complex formation in SEC with V30CB” value in experiment [3] is “Formation of a 2:1 complex”.
